We go through 4 molecules from patent publication US20130190285A1, “METHOD OF TREATING PANCREATIC CANCER” (Niiki Pharma Inc., priority 2009, published 2013).

One assay concerns pancreatic cancer. As to conditions: cited from earlier work.
The test system of the next assay is PANC-1 cells. As to conditions: cited from earlier work.
For assay [1], the system named is pancreatic tumor cell line MIA PaCa2. Description: MTT assay in 3-dimentional tumor model (HuBiogel). Type of assay: cell-based. As to conditions: MIA PaCa2 3-D tumor beads. As for the experimental part: (§1) The compound sodium trans-[tetrachlorobis(1H-indazole)ruthenate(III)] was tested in a 3-dimentional tumor model derived from pancreatic tumor cell line MIA PaCa2. Specifically, cells were trypsinized, washed, counted by trypan blue exclusion. Tumor beads were then prepared by mixing 20,000 cells/10 μl of HuBiogel (4 mg/mL) (See U.S. patent application Ser. No. 10/546,506, which is incorporated herein by reference). The 3-D tumor beads were cultivated for 72 hours in multi-well plates with complete media (10% FBS) in a 37° C. incubator+5% CO2. Mini-tumors were treated with various concentrations of the test compound sodium trans-[tetrachlorobis(1H-indazole)ruthenate(III)] in media (final 0.2-0.3% DMSO) or control (DMSO). Repeated drug treatment was done by removing the culture media and replacing with fresh media with drug compound or DMSO. On Day 3, MTT assay and live-cell staining with Calcein AM were performed (5 beads/assay set).
(§2) Statistical analysis of data sets (Average, T-test, GI-50) was performed using MS-Excel program.
Background: Tetrazolium dyes change colour on reduction, which living cells bring about.

Assay [2] has the same test system. Description: live-cell staining with Calcein AM in 3-dimentional tumor model (HuBiogel). Type of assay: cell-based. The settings on record: MIA PaCa2 3-D tumor beads, Day 3. As for the experimental part:
as §1, §2

Another assay concerns HT29. The settings on record: colon cancer cell line HT29; cited from earlier work.
A further assay concerns SW480. As to conditions: colon cancer cell line SW480; cited from earlier work.
The subject of another assay is Capan-1. As to conditions: Capan-1, 72 hours post-treatment, MTT. As for the experimental part:
(§3) To test the activities of sodium trans-[tetrachlorobis(1H-indazole)ruthenate(III)], ATCC's MTT Cell Proliferation Assay® was performed using human pancreatic cancer cell lines PANC-1 and Capan-1. Stock cultures were allowed to grow to 70-80% confluence for this study. The anti-proliferative activity of sodium trans-[tetrachlorobis(1H-indazole)ruthenate(III)], against the indicated cell lines was evaluated in vitro using the ATCC's MTT Cell Proliferation Assay (Catalog No. 30-1010K). PANC-1 cells were grown in DMEM medium with 10% FBS and 1% pen/strep/glutamine. Capan-1 cells were grown using IMDM medium 20% FBS and 1% of pen/strep/glutamine. Panc 1 and Capan-1 cell plates were seeded with 6000 cells/well and 15,000 cells/well, respectively, and treated with sodium trans-[tetrachlorobis(1H-indazole)ruthenate(III)] at 1,000 μM, or a series of 4× dilutions thereof (250 μM, 62.5 μM, etc.). 100 μl of medium was removed from each well at 72 hours post-treatment and MTT reagent was added to each well. The plates were incubated plate at 37° C. for 4 hours and then 100 μl of detergent was added. The plates were left overnight at room temperature in the dark and was read on a plate reader using SoftMax® Pro (version 5.2, Molecular Devices).
(§4) The absorbance data was analyzed as follows: Absorbance values were converted to Percent of Control and plotted against test agent concentrations for IC50 calculations using SoftMax® Pro (version 5.2, Molecular Devices). The plate blank signal average was subtracted from all wells prior to calculating the Percent of Control. Percent of Control values were calculated by dividing the absorbance values for each test well by the No Drug Control average (column 11 values; cells+vehicle control) and multiplying by 100. Plots of Compound Concentration versus Percent of Control were analyzed using the 4-parameter equation to obtain IC50 values and other parameters that describe the sigmoidal dose response curve.
(§5) The IC50 value for the test agents was estimated by curve-fitting the data using the following four parameter-logistic equation: […]

The subject of the next assay is PANC-1. As for the experimental part:
as §3, §4, §5

As to `C#Cc1cccc(Nc2ncnc3cc(OCCOC)c(OCCOC)cc23)c1` [erlotinib], in the assay on pancreatic cancer (erlotinib in combination with gemcitabine, advanced-stage pancreatic cancer patients), the “median overall survival benefit” value was “less than four weeks”. In addition, in the assay with PANC-1 cells, the “sensitivity of PANC-1 cells to the drug” value is recorded as “resistant”.
In general, IC50 refers to the concentration that inhibits the measured activity by half. High values mean lower potency, low ones higher potency. As to `[Cl][Ru-]([Cl])([Cl])[Cl].[Na+].c1ccc2[nH]ncc2c1.c1ccc2[nH]ncc2c1` [sodium trans-[tetrachlorobis(1H-indazole)ruthenate(III)]], the “tumor proliferation activity (MTT)” value in assay [1] (Day 3, FIG. 1) is given as “significantly inhibited tumor proliferation activity”. Further, the GI50 in assay [1] (MTT assay on Day 3, read-out: average GI-50 (the drug concentration required for growth inhibition at 50%)) worked out at 35.7 µM. The “tumor killing in live-cell staining/image analysis” value in assay [2] was “dose-dependent tumor killing effective”. In addition, the killing tumor cells result in the assay on HT29 and in the assay on SW480 was “effective in killing tumor cells” each time. The IC50 with Capan-1 turned out to be 45.2 µM; with PANC-1 (PANC-1, 72 hours post-treatment, MTT), 30.6 µM. For the same molecule, the “activity in cells resistant to gemcitabine and erlotinib” value in the assay on PANC-1 (PANC-1 cells) was “active”.
Consider `Nc1ccn([C@@H]2O[C@H](CO)[C@@H](O)C2(F)F)c(=O)n1` [gemcitabine], for which the “efficacy in pancreatic cancer” value with pancreatic cancer (weekly intravenous administration) is “effective”. In the assay on PANC-1 cells, the “sensitivity of PANC-1 cells to the drug” value was “resistant”.
Regarding `[Cl-].[Cl-].[Cl-].[Cl-].[Ru+3].c1ccc2[nH][nH+]cc2c1.c1ccc2[nH]ncc2c1.c1ccc2[nH]ncc2c1` [Indazolium trans-[tetrachlorobis(1H-indazole)ruthenate(III)], reference compound], the killing tumor cells entry in the assay with HT29 and in the assay on SW480 was “effective in killing tumor cells” in each case.
